Measured values taken from the supplement of paper PMC10307832.

Assays:
Experiment in all cases: relative viability (nuclei count vs DMSO), 5 days (fraction); higher = more cells survive
GSK126 + Olaparib = compound: CC[C@H](C)N1C=C(C2=C(C=C(C=C21)C3=CN=C(C=C3)N4CCNCC4)C(=O)NCC5=C(C=C(NC5=O)C)C)C [GSK126] + O=C(c1cc(Cc2n[nH]c(=O)c3ccccc23)ccc1F)N1CCN(C(=O)C2CC2)CC1 [Olaparib] (partner 8 µM)
Procedure, shortened: (§1)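 Dosing by pin tool came one day after lung cancer cell lines were seeded in 1536-well plates, using either one drug or a fixed anchor-drug dose plus five library-drug doses (not always all listed) in √10 steps. After 5 days, nuclei were counted on 4× images. Relative viability is treated-well nuclei count divided by vehicle-well nuclei count, and values are medians of duplicate plates.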

GSK126 + Phenformin = compound: CC[C@H](C)N1C=C(C2=C(C=C(C=C21)C3=CN=C(C=C3)N4CCNCC4)C(=O)NCC5=C(C=C(NC5=O)C)C)C [GSK126] + N=C(N)NC(=N)NCCc1ccccc1 [Phenformin] (partner 250 µM)
Procedure, shortened: as §1

GSK126 + Pemetrexed = compound: CC[C@H](C)N1C=C(C2=C(C=C(C=C21)C3=CN=C(C=C3)N4CCNCC4)C(=O)NCC5=C(C=C(NC5=O)C)C)C [GSK126] + Nc1nc2[nH]cc(CCc3ccc(C(=O)N[C@@H](CCC(=O)O)C(=O)O)cc3)c2c(=O)[nH]1 [Pemetrexed] (partner 0.2 µM)
Procedure, shortened: as §1

Carboplatin + Olaparib = compound: C1CC(C1)(C(=O)O)C(=O)O.[NH2-].[NH2-].[Pt+2] [Carboplatin] + O=C(c1cc(Cc2n[nH]c(=O)c3ccccc23)ccc1F)N1CCN(C(=O)C2CC2)CC1 [Olaparib] (partner 8 µM)
Procedure, shortened: as §1

| Cell Line | relative viability (GSK126 + Olaparib; first compound 0.08 µM) | relative viability (GSK126 + Olaparib; first compound 0.253 µM) | relative viability (GSK126 + Olaparib; first compound 0.8 µM) | relative viability (GSK126 + Olaparib; first compound 2.53 µM) | relative viability (GSK126 + Olaparib; first compound 8 µM) | relative viability (GSK126 + Phenformin; first compound 0.08 µM) | relative viability (GSK126 + Phenformin; first compound 0.253 µM) | relative viability (GSK126 + Phenformin; first compound 0.8 µM) | relative viability (GSK126 + Phenformin; first compound 2.53 µM) | relative viability (GSK126 + Phenformin; first compound 8 µM) | relative viability (GSK126 + Pemetrexed; first compound 0.08 µM) | relative viability (GSK126 + Pemetrexed; first compound 0.253 µM) | relative viability (GSK126 + Pemetrexed; first compound 0.8 µM) | relative viability (GSK126 + Pemetrexed; first compound 2.53 µM) | relative viability (GSK126 + Pemetrexed; first compound 8 µM) | relative viability (Carboplatin + Olaparib; first compound 0.08 µM) | relative viability (Carboplatin + Olaparib; first compound 0.253 µM) | relative viability (Carboplatin + Olaparib; first compound 0.8 µM) | relative viability (Carboplatin + Olaparib; first compound 2.53 µM) | relative viability (Carboplatin + Olaparib; first compound 8 µM) |
| --- | --- | --- | --- | --- | --- | --- | --- | --- | --- | --- | --- | --- | --- | --- | --- | --- | --- | --- | --- | --- |
| SK-MES-1 | 0.798 | 0.787 | 0.721 | 0.724 | 0.657 | 0.743 | 0.673 | 0.635 | 0.526 | 0.535 | 1.01 | 0.996 | 0.979 | 0.941 | 1.09 | 0.843 | 0.748 | 0.646 | 0.621 | 0.537 |
| NCI-H1648 | 1.01 | 1.22 | 0.774 | 1.1 | 0.908 |  |  |  |  |  | 0.693 | 0.766 | 0.884 | 0.945 | 0.76 | 1.39 | 1.29 | 1.21 | 0.765 | 0.897 |
| PC-14 | 0.348 | 0.295 | 0.335 | 0.354 | 0.396 | 0.554 | 0.611 | 0.667 | 0.651 | 0.565 | 0.131 | 0.133 | 0.135 | 0.155 | 0.148 | 0.266 | 0.266 | 0.171 | 0.118 | 0.0838 |
| NCI-H1651 | 0.183 | 0.175 | 0.176 | 0.178 | 0.161 | 0.369 | 0.268 | 0.354 | 0.313 | 0.364 | 0.651 | 0.594 | 0.566 | 0.67 | 0.636 | 0.191 | 0.199 | 0.185 | 0.166 | 0.161 |
| HOP-62 | 0.447 | 0.506 | 0.414 | 0.455 | 0.428 | 0.672 | 0.68 | 0.672 | 0.642 | 0.68 | 0.335 | 0.355 | 0.284 | 0.289 | 0.419 | 0.391 | 0.398 | 0.444 | 0.506 | 0.255 |
| HCC-44 | 1.01 | 1.02 | 1.03 | 0.92 | 1 | 0.23 | 0.194 | 0.186 | 0.192 | 0.243 | 0.65 | 0.712 | 0.581 | 0.602 | 0.551 | 1.02 | 0.93 | 0.972 | 0.944 | 0.952 |
| HCC-15 | 0.749 | 0.776 | 0.686 | 0.608 | 0.745 | 0.513 | 0.419 | 0.457 | 0.422 | 0.442 | 0.221 | 0.229 | 0.224 | 0.215 | 0.238 | 0.664 | 0.729 | 0.693 | 0.57 | 0.492 |
| NCI-H460 | 0.434 | 0.397 | 0.388 | 0.326 | 0.29 | 0.587 | 0.531 | 0.523 | 0.483 | 0.468 | 0.0714 | 0.0516 | 0.0631 | 0.0635 | 0.0781 | 0.444 | 0.47 | 0.253 | 0.188 | 0.187 |
| NCI-H1299 | 1 | 0.93 | 0.922 | 0.921 | 0.976 |  |  |  |  |  |  |  |  |  |  | 0.967 | 0.969 | 0.96 | 0.947 | 0.826 |
| SK-LU-1 | 0.555 | 0.452 | 0.45 | 0.396 | 0.482 | 0.674 | 0.521 | 0.553 | 0.582 | 0.603 | 1.06 | 0.938 | 0.956 | 0.953 | 1.06 | 0.517 | 0.483 | 0.387 | 0.425 | 0.356 |
| A549 | 0.361 | 0.297 | 0.336 | 0.333 | 0.368 | 0.245 | 0.169 | 0.126 | 0.131 | 0.114 |  |  |  |  |  | 0.332 | 0.388 | 0.314 | 0.329 | 0.174 |
| Calu-6 | 0.604 | 0.664 |  | 0.612 | 0.577 |  |  |  |  |  |  |  |  |  |  | 0.582 | 0.552 | 0.541 | 0.475 | 0.298 |
| IA-LM | 1.03 | 0.832 | 0.99 | 0.759 | 0.75 |  |  |  |  |  |  |  |  |  |  | 0.836 | 0.74 | 0.715 | 0.905 | 0.57 |
| NCI-H727 | 0.866 | 0.805 | 0.68 | 0.812 | 0.646 | 0.469 | 0.622 | 0.587 | 0.624 | 0.533 |  |  |  |  |  | 0.75 | 0.586 | 0.862 | 0.646 | 0.667 |
| EBC-1 | 0.743 | 0.711 | 0.702 | 0.684 | 0.615 |  |  |  |  |  |  |  |  |  |  | 0.775 | 0.694 | 0.725 | 0.624 | 0.567 |
| NCI-H1703 | 0.576 | 0.351 | 0.694 | 0.455 | 0.492 |  |  |  |  |  |  |  |  |  |  | 0.646 | 0.329 | 0.453 | 0.608 | 0.325 |
| NCI-H1563 |  |  |  |  |  | 0.665 | 0.676 | 0.654 | 0.596 | 0.646 | 0.848 | 0.808 | 0.772 | 0.579 | 0.754 |  |  |  |  |  |
| ABC-1 | 0.573 | 0.698 | 0.869 | 0.691 | 0.659 | 0.243 | 0.262 | 0.268 | 0.244 | 0.242 |  |  |  |  |  | 1.09 | 0.759 | 0.781 | 0.654 | 0.553 |
| NCI-H1623 |  |  |  |  |  | 0.631 | 0.594 | 0.602 | 0.589 | 0.537 |  |  |  |  |  |  |  |  |  |  |
